Here are results for 6 compounds from ChEMBL document CHEMBL1158194, “Phytogrowth-inhibitory compounds from Malmea depressa” (J Nat Prod, 1996).

Data set [1] has as its system A549. Put plainly: Cytotoxicity against human A549 cells. Conditions: read-out: ED50 (the source's name). Type of data set: functional.
Data set [2] is described as follows: Toxicity in brine shrimp larvae. Conditions: artemia, in vivo. Type of data set: organism-based.
The subject of data set [3] is Echinochloa crus-galli. Put plainly: Inhibition of phytogrowth in Echinochloa crus-galli seedlings measured after 48 hrs incubation under dark condition. It is filed as functional, organism-based.
Data set [4] deals with Fusarium oxysporum. Put plainly: Antifungal activity against Fusarium oxysporum. Type of data set: functional.
The subject of data set [5] is Trichophyton mentagrophytes. Description: Antifungal activity against Trichophyton mentagrophytes ATCC 9129 by agar dilution method. Type of data set: functional. A general note: Agar dilution tests growth on a series of plates holding different concentrations.
Data set [6] relates to MCF7. Put plainly: Cytotoxicity against human MCF7 cells. It is filed as functional. To be noted: read-out: ED50 (the source's name).
Data set [7] concerns Amaranthus hypochondriacus. Put plainly: Inhibition of phytogrowth in Amaranthus hypochondriacus seedlings measured after 24 hrs incubation under dark condition. It is filed as functional, organism-based.
In data set [8] the test system is HT-29. Description: Cytotoxicity against human HT29 cells. It is filed as functional. To be noted: read-out: ED50 (the source's name).
Data set [9] concerns Aspergillus niger. Put plainly: Antifungal activity against Aspergillus niger ATCC 16888 by agar dilution method. It is filed as functional.

Converted amounts (≈) assume the structure as drawn. Where only a bound is given, the exact number is not on record here.

The LC50 is the concentration that kills 50% of the test population. A higher LC50 goes with lower toxicity. The IC50 is the concentration needed to halve the response being measured. High values mean weaker potency, low ones greater potency. A word on the MIC: it is the lowest concentration found to suppress growth.

As to `C=CCc1cc(OC)c(OC)c(OC)c1OC`, the figures for the EC50 in [1], in [6] and in data set [8] were 29 µg/mL (≈ 122 µM), 46 µg/mL (≈ 193 µM) and 71 µg/mL (≈ 298 µM), respectively. Moreover, the LC50 in [2] was found to be 144 µg/mL (≈ 604 µM). Besides, the IC50 stood at 810 µg/mL (≈ 3400 µM) in data set [3] and 43 µg/mL (≈ 180 µM) in data set [7]. Besides, the MIC was determined as 250 µg/mL (≈ 1050 µM) in data set [4] and 500 µg/mL (≈ 2100 µM) in data set [5].
As to `COC1=CC(=O)C[C@@H](C)[C@]12Oc1c(Cl)c(OC)cc(OC)c1C2=O` [GRISEOFULVIN], the MIC in data set [5] amounted to 2.6 µg/mL (≈ 7.37 µM).
`C[C@@H]1[C@H](O)[C@@H](C)/C=C/C=C/C=C/C=C/C=C/C=C/C=C/[C@H](O[C@@H]2O[C@H](C)[C@@H](O)[C@H](N)[C@@H]2O)C[C@@H]2O[C@](O)(C[C@@H](O)C[C@@H](O)[C@H](O)CC[C@@H](O)C[C@@H](O)CC(=O)O[C@H]1C)C[C@H](O)[C@H]2C(=O)O` [AMPHOTERICIN B] showed an MIC in data set [9] of 3 µg/mL (≈ 3.25 µM).
With `COc1cc(C=O)c(OC)c(OC)c1OC`, the figures for the IC50 in data set [3] and in data set [7] were more than 1000 µg/mL and 822 µg/mL (≈ 3630 µM), respectively.
With `CCCCC[C@H]1CCCCCCCCCC(=O)O[C@H]2[C@H](O)[C@@H](CO)O[C@@H](O[C@H]3[C@H](O1)O[C@H](C)[C@H](O)[C@@H]3O)[C@@H]2O[C@@H]1O[C@@H](C)[C@H](OC(=O)[C@@H](C)CC)[C@@H](O[C@@H]2O[C@@H](C)[C@H](O)[C@@H](O)[C@H]2O)[C@H]1OC(=O)[C@@H](C)CC` [TRICOLORIN A], inhibition in [3] was half-maximal at 12 µg/mL (≈ 11.7 µM) (IC50).
Regarding `COc1cccc2c1C(=O)c1c(O)c3c(c(O)c1C2=O)C[C@@](O)(C(=O)CO)C[C@@H]3O[C@H]1C[C@H](N)[C@H](O)[C@H](C)O1` [DOXORUBICIN], the EC50 in [1] amounted to 0.03 µg/mL (≈ 0.0552 µM); in data set [6], 0.3 µg/mL (≈ 0.552 µM); in [8], 0.007 µg/mL (≈ 0.0129 µM).
